This note sets out measurements from US20090197853A1, “METHODS AND COMPOSITIONS OF TREATING CANCER” (priority 2005, published 2009).

“Also recorded” adds a separate entry of the source.

The test system of one test is A549 cells. The test is described as follows: Proliferation (tetrazole reduction/MTT), A549. Type of test: cell-based, human. The following applies: for A549 cell proliferation: exponential phase, 24 hours treatment plus 48 hr growth, zinc up to 100 μM. How it is done: (§1) Methods: The proliferation of exponential phase cultures was assessed by colorimetric assay. In brief, 2×10^5 suspension cells per well were seeded on 96-well V-bottom microtiter plates. Stock solutions of control vehicle, MGd or Zn(OAc)2 in medium were added and plates were incubated at 37° C. under a 5% CO2/95% air atmosphere. After 24 hours, medium was replaced with fresh medium. After 2 additional days, medium was exchanged with fresh medium (150 μL/well) supplemented with 3-(4,5-dimethylthiazol-2-yl)-2,5-diphenyltetrazolium bromide (MTT, 0.5 mg/mL, Sigma Biochemical, St. Louis, Mo.). Plates were incubated at 37° C. and viable cells measured.

The subject of the next test is Thioredoxin reductase. The test is described as follows: Lipoate reduction (thioredoxin reductase activity) in intact A549 cells. Type of test: cell-based, human. The following applies: for Inhibition of lipoate reduction: plateau phase A549, two-hour treatment. How it is done:
Methods: Lipoate Reduction. Thioredoxin reductase activity was assessed by measuring the rate of lipoate reduction. In brief, A549 or PC3 cells (10,000 cells/well) were plated on 96-well plates and allowed to adhere overnight and grow two additional days until confluent. Cells were treated with MGd, zinc, or 5% mannitol for 2-4 hours, as indicated. Medium was removed, cells were washed with Hanks Balanced Salt Solution (HBSS), and a solution of 5 mM lipoic acid and 1 mM 5,5′-dithiobis(2-nitrobenzoic acid) in HBSS (100 μL/well) was added. Plates were incubated at ambient temperature in the dark. At chosen time intervals, plate absorbance was measured at 405-650 nm. Plate absorbances were normalized to wells containing neither exogenous zinc nor texaphyrin complex to allow plate-to-plate comparison. In some experiments, L-buthionine-[S,R]-sulfoximine (BSO, 100 μM) was added 24 hours prior to MGd or zinc treatment, to inhibit any contribution to lipoate reduction made by glutathione-dependent pathways (28). Actinomycin D (2.5 μg/mL) or cycloheximide (10 μg/mL), where present, was added 1 hour prior to texaphyrin or zinc treatment. Viability was checked on parallel plates using the tetrazolium dye 3-(4,5-dimethylthiazol-2-yl)-5-(3-carboxymethoxyphenyl)-2-(4-sulfophenyl)-2H-tetrazolium (MTS) following the manufacturers protocol (Promega Corp.).

The next test relates to PC3 cells. The test is described as follows: Proliferation, PC3. The test is classed as cell-based. As for the experimental part: as §1
The test system of test [1] is Ramos cells. In words: Annexin-V apoptosis, Ramos. The test is classed as cell-based. The following applies: single agent alone. As for the experimental part:
Methods: Annexin V/PI. Cells from exponential phase cultures were treated with MGd, zinc, or control (5% mannitol) solution for 24 or 48 hours. After incubation, cells were harvested and washed twice with a solution of 0.5% bovine serum albumin (BSA) in Hanks buffered saline (HBSS). An aliquot of cells (1×10^6) was added to 500 μL diluted binding buffer from the ANNEXIN-V PI Kit (BD Biosciences, San Jose, Calif.). Cells were pelleted, re-suspended in 100 μL of diluted binding buffer, and treated with the ANNEXIN-V PI reagent as per the manufacturer's protocol.

Test [2] concerns metallothionein gene family members and ZnT1. In words: Northern blot analysis, A549 cultures. Type of test: cell-based, human. The following applies: for Metallothionein transcript levels: A549, 24 hours, 50 μM MGd, Zn(OAc)2 100 μM, CdCl2 50 μM, FIG. 2B. How it is done: Methods: Northern Blot Analysis—Plateau phase cultures of A549 cells were prepared as described above, except that T-25 flasks were used, and the number of cells initially plated scaled accordingly. Cultures were treated with 50 μM MGd, 5 μM Gd(OAc)3 or 5% mannitol for 4 hours, whereupon cultures were washed twice with PBS and RNA harvested as above. Alternatively, 7-day plateau phase A549 or PC3 cultures were treated with 50 μM MGd, 50-100 μM Zn(OAc)2, 50 μM CdCl2 or 5% mannitol for 24 hours (A549) or 4 hours (PC3) prior to washing and RNA analysis. Exponential phase Ramos cultures were treated for 6 hours. Northern blots were conducted and analyzed. Radio labeled metallothionein probe, designed to bind to a 113-bp region of 3′-UTR sequences from multiple metallothionein gene family members, was generated using 5′-[…]-3′ (forward) and 5′-[…]-3′ (reverse) PCR primers and the NEBlot kit (New England Biolabs, Inc.). Radio labeled ZnT1 probe was generated in a similar fashion using 5′-[…]-3′ (forward) and 5′-[…]-3′ (reverse) primers.

Test [3] relates to Ramos cells. The test is described as follows: Mitochondrial membrane potential (JC-1), Ramos. The test is classed as cell-based. The following applies: single agent alone. How it is done: Mitchondrial membrane potential. Loss of the mitochondrial membrane potential (ΔΨm) of cells was measured by the use of JC-1 (Molecular Probes, Inc., Eugene, Oreg.). Cells undergoing early apoptosis lose fluorescence in the 585 nm channel and gain it in the 530 nm channel. Briefly, cells cultured as described above were washed twice with complete medium, re-suspended in 0.5 mL JC-1 solution (10 μg/mL in complete medium), and incubated at 37° C. for 15 minutes. Cells were isolated by centrifugation, washed once and then re-suspended in 0.5 mL solution of 0.5% BSA in PBS and assayed immediately on the flow cytometer.

Test [4] concerns Ramos, Raji, DB, DHL-4, HF-1, Jurkat, K562 and HL-60 cell lines. In words: Proliferation of hematologic cell lines. Type of test: cell-based. The settings on record: for Effect on proliferation: low concentrations of zinc or MGd alone. As for the experimental part:
as §1, with “Cellular Proliferation—The” for “Methods: The”

The subject of test [5] is Ramos cells. In words: Reactive oxygen species (DCFA to DCF), Ramos. Type of test: cell-based. The settings on record: single agents. As for the experimental part: Methods: Reactive oxygen species were measured in live cells as intracellular peroxides by monitoring the oxidation of 2′,7′-dichlorofluorescin-diacetate (DCFA) to 2′,7′-dichlorofluorescein (DCF) (Molecular Probes). Cells (1×10^6 per mL) were incubated in a solution of 1 μg per mL DCFA in 0.5% BSA in HBSS for 15 minutes at 37° C. Two mL additional 0.5% BSA in HBSS was added, cells were isolated by centrifugation, and the pellet re-suspended in a solution of 50 μg/mL 7-aminoactinomycin D (7-AAD) in 0.5% BSA in HBSS. Cell suspensions were incubated at ambient temperature for 2 to 3 minutes, and stored on ice until analysis. The fluorescent intensity in live (i.e., 7-AAD impermeable) cells was analyzed by flow cytometry.

In test [6] the test system is Ramos B-cell lymphoma cells. The test is described as follows: Proliferation, Ramos. Type of test: cell-based. The following applies: 50 μM zinc. How it is done: as §1
as §1, with “Cellular Proliferation—The” for “Methods: The”

`CC(=O)[O-].CC(=O)[O-].CCc1c(CC)c2cc3nc(cnc4cc(OCCOCCOCCOC)c(OCCOCCOCCOC)cc4ncc4nc(cc1[n-]2)C(CCCO)=C4C)C(C)=C3CCCO.O.[Gd+3]` [MGd, Motexafin gadolinium]: the “Effect of MGd on the anti-proliferative activity of zinc” value in the test on A549 cells (A549, all MGd concentrations tested) is reported as “enhanced the anti-proliferative activity of zinc”. Besides, in the test with A549 cells, the A549 cell proliferation entry is “no effect on proliferation”. For the same compound, the “Effect of MGd on inhibition of lipoate reduction by zinc” value in the test with Thioredoxin reductase (A549) is given as “potentiated”. Also, in the test on Thioredoxin reductase (A549, dose-dependent effect of MGd on inhibition with zinc), the “Apparent inhibitory concentration of MGd” value is “approximately 2.5 μM”. Moreover, in the test on Thioredoxin reductase (A549, potentiation of zinc inhibition), the “Concentration above which the effect of MGd on lipoate reduction saturated” value is on record as “approximately 5 μM”. Besides, the “Inhibition of lipoate reduction” value in the test with Thioredoxin reductase is on record as “approximately 10%”. Also, the “Effect of MGd on the effect of zinc on proliferation” value in the test on PC3 cells (PC3) is reported as “enhanced the effect of zinc”. Besides, the Annexin-V signal entry in the test on Ramos cells [1] is “No significant change”. In addition, the Metallothionein transcript levels result in test [2] is “raised; also recorded: significant increase”. Further, the “Induction of metallothionein gene family members and ZnT1 (Northern blot)” value in test [2] (A549 plateau phase, 4 hours, 50 μM MGd or 5 μM Gd(OAc)3) is given as “confirmed the induction; also recorded: induced”. For the same compound, the JC-1 fluorescence result in the test with Ramos cells [3] was “No significant change”. In test [4] (all cell lines), the “Effect of MGd on sensitivity to zinc (proliferation)” value is “increased” and the Effect on proliferation entry is reported as “no significant effect”. The “Effect of MGd co-treatment on the inhibition of proliferation by zinc” value in test [4] (all lines except HL60) is listed as “potentiated the inhibition by zinc”. The DCF signal result in the test on Ramos cells [5] is “increased DCF signal”. The Cellular proliferation entry in [6] is given as “without effect”.

Consider `CC(=O)[O-].CC(=O)[O-].[Zn+2]` [Zn(OAc)2, Zinc acetate], for which the A549 cell proliferation entry with A549 cells is “modestly inhibited”. In addition, the “Inhibition of lipoate reduction” value in the test on Thioredoxin reductase is reported as at most 30%. In addition, the PC3 cell proliferation entry with PC3 cells is listed as “inhibited”. Further, the Annexin-V signal result in the test on Ramos cells [1] is given as “No significant change”. The Metallothionein transcript levels result in test [2] was “significant increase”; in [2] (listed as zinc), “raised”. Also, in the test on Ramos cells [3], the JC-1 fluorescence result is recorded as “No significant change”. The Proliferation result in test [4] (50 to 100 μM zinc, four additional B-cell lines, K562, Jurkat) is recorded as “inhibited the proliferation”. In test [4] (all cell lines), the Effect on proliferation result is “no significant effect”. In the test with Ramos cells [5], the DCF signal entry is “increased DCF signal”. Further, the Cellular proliferation result in test [6] is reported as “without effect”.
